Values of other authors, collected in patent publication US5814653A, “Pharmaceutical method using 6-substituted-1, 2, 3, 4-tetrahydro-9H-carbazoles and 7-substituted-10H -cyclohepta (7, 6-B) indoles” (priority 1997, dated 1998).

Tests used:
[1] = in vivo
migraine headache = details: Humphrey, et al. (1990)
neurogenic inflammation = details: Neurology, 43(suppl. 3), S16-S20 (1993)

In the case of `CNS(=O)(=O)Cc1ccc2[nH]cc(CCN(C)C)c2c1.O=C(O)CCC(=O)O` [Compound I, 3-[2-(dimethylamino)ethyl]-N-methyl-1H-indole-5-methanesulfonamide butane-1,4-dioate (1:1)], the undesirable side effects [1] is listed as “undesirable side effects, particularly vasoconstriction”, the “effectiveness in the treatment of migraine headache” value (migraine headache) is listed as “effective in the treatment of migraine” and the “blockade of neurogenic inflammation” value (neurogenic inflammation) is listed as “blocked”.
